Reference: article PMC6964649, “Light-controllable dithienylethene-modified cyclic peptides: photoswitching the in vivo toxicity in zebrafish embryos” (Beilstein Journal of Organic Chemistry, 2020)
Starred links: 1 amine or outer side, 2 acyl side, 3 side chain; linkers in the order of their positions; H or OH if unused. Positions of bridges follow the written chain, without caps; N, C: chain ends. Non-standard residues stand in square brackets, D forms with d. Residues, ends and D or L forms follow the SMILES beside them. X2 = Cc1sc(C(=O)[C@@H]2CCCN2[*:2])cc1C1=C(c2cc(C(=O)[*:1])sc2C)CCC1; Leu(3R-OH) = CC(C)[C@@H](O)[C@H](N)C(=O)O; Orn = NCCC[C@H](N)C(=O)O

What was measured:
D. rerio embryos [1] = experiment: D. rerio embryotoxicity "photoactivation" assay (ring-closed photoform in darkness, then in situ photoconversion); assay type: in vivo, Danio rerio; conditions: for LD50 (opened)^1h / LD50 (opened)^24h: after 24 h with ring-closed form in dark, in situ illumination 10 min, λ = 570 nm, approx. 20 mW/cm^2; for LD50 (opened)^1h: mortality 1 h after illumination, embryos 4 dpf; for LD50 (opened)^1h / LD50 (opened)^24h / LD50 (closed)^24h: value ± STD; for LD50 (opened)^24h: mortality 24 h after illumination, embryos 5 dpf at readout; for LD50(closed)^24h/LD50(open)^24h ratio: phototherapeutic safety window, ring-closed 24 h LD50 (dark) divided by ring-open 24 h LD50 (direct application); for LD50 (closed)^24h: ring-closed photoform applied to embryos at 3 dpf, 24 h in the dark, sealed vials, E3 medium, 0.2% DMSO
Experimental: (§1) To establish the assay for screening the photoswitchable peptides, we first studied the toxicity of our prototype 2 by varying the assay conditions. The parent peptide GS 1 was used as a control. […] We measured the doses causing the death of 50% embryos (LD50). We tested two different assay variations: in one version, the LD50(open) was determined after direct application of 1 or of the ring-open form of 2. In the other variant, the photoswitchable peptide was applied in the ring-closed photoform in the darkness, its LD50(closed) was recorded, and then in situ illumination (“photoactivation”) was applied to switch into the ring-open photoform and obtain the respective LD50(opened) values (see Figure 2 for the study design and the killing curves).
(§2) Figure 2 Two versions of the D. rerio embryotoxicity assay for DAE-modified peptides: timelines, peptide photostates, ages of larvae, and definitions of the measured characteristics. (A) Direct application of the non-photoswitchable parent GS 1 or of the ring-open photoform of our prototype 2, and the corresponding killing curves for 1 (C, top, black) and 2 (C, bottom, red). (B) “Photoactivation” assay: initial application of the ring-closed photoform, incubation in darkness, followed by in situ photoconversion into the ring-open(ed) photoform, with the corresponding killing curves for 1 (D, top) and 2 (D, bottom, green for ring-closed, red for ring-open isomers). The latter panel illustrates the “phototherapeutic safety window” (green arrow) as the difference in toxicity between the ring-closed and the ring-open isomers upon photoactivation.
(§3) Each time, 12–15 or 18–20 zebrafish embryos at 3 dpf were treated by applying the corresponding peptide dissolved in dimethyl sulfoxide (final dimethyl sulfoxide concentration was 0.2%). Double-concentrated peptide stock solutions (64–512 µg/mL) were prepared by weighing lyophilized peptides, dissolving in 10% dimethyl sulfoxide and constructing two-fold dilution series with ten–eleven dilution steps. In the photoconversion experiments, in order to prevent spontaneous photoswitching of the ring-closed peptides by vis light, zebrafish embryos and peptides were kept in the dark before the first readout, and the vials were sealed to avoid evaporation of the embryonic medium (E3) at prolonged incubation times. After the first screen, without exchanging any solution, the vials with embryos and ring-closed photoforms were exposed to intense illumination for 10 min (LUMATEC Superlite 410 light source, λ = 570 nm, irradiance approximately 20 mW/cm^2). Mortality was then determined under ambient light conditions at 1 h and 24 h after the illumination procedure.

D. rerio embryos [2] = experiment: D. rerio embryotoxicity assay, direct application of ring-open photoform; assay type: in vivo, Danio rerio; conditions: direct application of 1 or ring-open photoform, zebrafish embryos at 3 dpf, final DMSO 0.2%, ambient light, value ± STD; for LD50 (open)^1h: 1 h incubation, 12–15 or 18–20 embryos; for LD50 (open)^3h: 3 h incubation; for LD50 (open)^24h: 24 h incubation
Experimental: as §1, §2, §3

Row | Compound | LD50 (opened)^1h (D. rerio embryos [1]) [µg/mL] | LD50 (opened)^24h (D. rerio embryos [1]) [µg/mL] | LD50(closed)^24h/LD50(open)^24h ratio (D. rerio embryos [1]) | LD50 (closed)^24h (D. rerio embryos [1]) [µg/mL] | LD50 (open)^1h (D. rerio embryos [2]) [µg/mL] | LD50 (open)^3h (D. rerio embryos [2]) [µg/mL] | LD50 (open)^24h (D. rerio embryos [2]) [µg/mL]
1 | DAE-OrnN3-OLfPVOL (bicyclic or more) [Peptide 20, "click"-chemistry connected homodimer of DAE-modified macrocycle (series v)] | 8.4 ± 3.3 | 3.5 ± 0.6 | 7.1 | 10.7 ± 0.1 | 3.7 ± 1.9 | 3.7 ± 1.9 | 1.5 ± 0.0
2 | Cc1sc2cc1C1=C(CCC1)c1cc(sc1C)C(=O)[C@@H]1CCCN1C(=O)[C@H](C(C)C)NC(=O)[C@H](CCCN)NC(=O)[C@H](C(C)C)NC(=O)[C@@H]1CCCN1C(=O)[C@@H](Cc1ccccc1)NC(=O)[C@H](C(C)C)NC(=O)[C@H](CCCN)NC(=O)[C@H]([C@@H](C)O)NC2=O [Peptide 6] (T[Orn]V[dF]PV[Orn]V; linker N-C via X2) | 20.6 ± 1.7 | 6.3 ± 2.3 | 22.9 | – | 30.8 ± 15.0 | 13.2 ± 13.3 | 8.6 ± 0.0
3 | CC[C@H](C)[C@@H]1NC(=O)c2cc(c(C)s2)C2=C(CCC2)c2cc(sc2C)C(=O)[C@@H]2CCCN2C(=O)[C@H](CC(C)C)NC(=O)[C@H](CCCN)NC(=O)[C@H]([C@@H](C)CC)NC(=O)[C@@H]2CCCN2C(=O)[C@H]2CCCN2C(=O)[C@H](CC(C)C)NC(=O)[C@H](CCCN)NC1=O [Peptide 9] (I[Orn]L[dP]PI[Orn]L; linker N-C via X2) | 2.2 ± 0.5 | 0.8 ± 0.1 | 5.7 | 9.1 ± 2.7 | 2.0 ± 1.1 | 2.1 ± 0.8 | 1.6 ± 0.3
4 | CC(C)C[C@@H]1NC(=O)[C@H](CCCN)NC(=O)[C@H](C(C)C)NC(=O)[C@@H]2CCCN2C(=O)[C@@H](Cc2ccccc2)NC(=O)[C@H](CC(C)C)NC(=O)[C@H](CCCN)NC(=O)[C@H](C(C)C)NC(=O)[C@@H]2CCCN2C(=O)[C@@H](Cc2ccccc2)NC1=O [Peptide 1, gramicidin S, reference compound] (cyclo(L[dF]PV[Orn]L[dF]PV[Orn])) | – | – | – | – | 2.8 ± 2.7 | 2.0 ± 3.0 | 2.4 ± 0.2
5 | Cc1sc2cc1C1=C(CCC1)c1cc(sc1C)C(=O)[C@@H]1CCCN1C(=O)[C@H](C(C)C)NC(=O)[C@H](CCCCN)NC(=O)[C@H](C(C)C)NC(=O)[C@@H](CCCCN)NC(=O)[C@H](CC(C)C)NC(=O)[C@@H]1CCCN1C(=O)[C@@H](Cc1ccccc1)NC(=O)[C@H](C(C)C)NC(=O)[C@H](CCCCN)NC(=O)[C@H](CC(C)C)NC(=O)[C@H](CCCCN)NC(=O)[C@H](C(C)C)NC2=O [Peptide 17] (VKLKV[dF]PL[dK]VKV; linker N-C via X2) | 9.9 ± 0.1 | 9.4 ± 0.7 | 3.1 | 9.9 ± 0.1 | 10.5 ± 5.8 | 10.5 ± 5.8 | 3.2 ± 0.2
6 | Cc1sc2cc1C1=C(CCC1)c1cc(sc1C)C(=O)[C@@H]1CCCN1C(=O)[C@H](C(C)C)NC(=O)[C@H](CCCN)NC(=O)[C@H]([C@H](O)C(C)C)NC(=O)[C@@H]1CCCN1C(=O)[C@@H](Cc1ccccc1)NC(=O)[C@H](C(C)C)NC(=O)[C@H](CCCN)NC(=O)[C@H]([C@H](O)C(C)C)NC2=O [Peptide 15] ([Leu(3R-OH)][Orn]V[dF]P[Leu(3R-OH)][Orn]V; linker N-C via X2) | 22.9 ± 0.2 | 7.2 ± 0.7 | 7.8 | 56.1 ± 12.2 | 36.5 ± 2.1 | 14.1 ± 6.0 | 7.2 ± 3.8
